In article PMC8950706, “Influence of Substitutions in the Binding Motif of Proline-Rich Antimicrobial Peptide ARV-1502 on 70S Ribosome Binding and Antimicrobial Activity” (International Journal of Molecular Sciences, 2022):
Values after ≈ are worked out from the molar mass of the structure shown. Marks after values point to notes of the source that are not given here. Square brackets hold non-standard residues; d marks the D form. Peptide text beside a SMILES is read from it. Ac6c = NC1(C(=O)O)CCCCC1

Experiments:
[1] = system: E. coli BW25113; experiment: MIC, liquid broth micro dilution, wild type; format: cell-based, Escherichia coli; conditions: for MIC (µg/mL), Table 3: BW25113, 4 h; for Minimal Inhibitory Concentration, 25% MHB2, wt / Minimal Inhibitory Concentration, 33% TSB, wt: BW25113, 20 h
Experimental: (§1) MIC values were determined using a liquid broth micro dilution assay in sterile 96-well plates (polystyrene F-bottom, Greiner Bio-One GmbH) and a total volume of 100 μL per well. Aqueous peptide solutions (10 g/L) were serially twofold diluted in 25% Mueller-Hinton broth 2 (25% MBH2) or 33% tryptic soy broth (33% TSB) starting at a peptide concentration of 128 mg/L (50 μL/well). Overnight cultures of bacteria grown in 25% MHB2 (or 33% TSB) were diluted 30-fold in 25% MHB2 (or 33% TSB). After an incubation period of 4 h (37 °C, 200 rpm), cells were diluted to 1.5 × 10^7 cfu/mL, based on a McFarland test, and 50 μL were added to each well (final concentration of 7.5 × 10^6 […]). The plates were incubated (37 °C, 20 h) and the optical density was recorded at 595 nm using a microplate reader ([…]^TM, Beckmann Coulter). The MIC was defined as the lowest peptide concentration preventing visible bacterial growth.

[2] = system: E. coli BW25113 ∆sbmA ∆mdtM; format: cell-based, Escherichia coli
Experimental: as §1

[3] = system: E. coli BW25113 ∆sbmA; format: cell-based, Escherichia coli; conditions: 20 h, at least duplicates on two days, * once on two days, ** duplicate on one day
Experimental: as §1

[4] = system: E. coli 70S ribosome; experiment: Competitive FP binding screening assay with Cf-ARV-1502 (relative FP); parameters: species or system E. coli BW25113; conditions: for Ribosome Binding (%): competitive ribosome binding against Cf-ARV-1502 (relative FP; values match 1.2 µmol/L peptide), low value = strong competition
Experimental: E. coli 70S ribosomes were prepared using a previously described protocol that was slightly modified. Briefly, E. coli BW25113 was cultivated in Luria-Bertani (LB) medium and cells were harvested after reaching an optical density of ~4 at 600 nm by centrifugation (5000× g, 15 min, 4 °C, Rotor JLA 8.100, Avanti J-20 XP, Beckmann Coulter, Krefeld, Germany). The cell pellets were frozen and stored at −80 °C. Cells were resuspended in ribosome buffer (2 mL/g cells; 20 mmol/L HEPES-KOH, 6 mmol/L MgCl2, 30 mmol/L NH4Cl, 4 mmol/L 2-mercaptoethanol, pH 7.6). Lysozyme (0.25 g/L cell suspension) was added, and the mixture was incubated on ice for 30 min. Cells were disrupted using the bead mill homogenizer FastPrep-24™ 5G (40 s, 4 m/s, 6 cycles, MP Biomedicals Germany GmbH, Eschwege, Germany) and zirconia/silica beads (0.1 mm diameter). The lysate was centrifuged (1500× g, 5 min, 4 °C, Rotor S4180, Allegra 21R, Beckmann Coulter) and the supernatant was incubated with DNase (5 U/mL) on ice for 60 min. The cell debris was removed by two centrifugation steps (16,000× g, 30 min, 4 °C followed by 32,000× g, 60 min, 4 °C, Rotor JA 30.50 Ti, Avanti J-30I, Beckmann Coulter). The ribosome was pelleted by ultracentrifugation (165,000× g, 17 h, 4 °C, Rotor 70 Ti, Optima LE-80K, Beckmann Coulter), resuspended in ribosome buffer (0.1 mL/g pellet), and stored at −80 °C. The ribosome concentration was determined by recording the absorbance of RNA at 260 nm (NanoPhotometer NP80, Implen GmbH, München, Germany) assuming that 1 AU corresponds to a ribosome concentration of 28 nmol/L. The molecular weight of the E. coli 70S ribosome was assumed to be 2.3 MDa.
E. coli 70S ribosomes and Cf-ARV-1502 were incubated with four different concentrations of unlabeled peptides chosen based on the IC50 curves of reference peptide ARV-1502. Each peptide was diluted in ribosome buffer to obtain a concentration of 4.8 µmol/L and transferred to a 384-well-plate. Peptides were then twofold serially diluted in four steps from 4.8 to 0.6 µmol/L (20 µL). The ribosome extract was diluted in ribosome buffer to reach a concentration of 2 µmol/L and 10 µL were added to each well to obtain a final ribosome concentration of 0.5 µmol/L. Plates were centrifuged (2 min, 500× g, Rotor S2096, Allegra^TM 21R, Beckmann Coulter) and incubated at 28 °C for 90 min. Cf-labeled ARV-1502 was added (10 µL; final concentration of 20 nmol/L) and the plates were again centrifuged and incubated (28 °C, 90 min). After incubation, fluorescence polarization was recorded on a […]^TM microplate reader (λex = 485 nm, λem = 535 nm).
On each plate 12 minimum (30 µL ribosome buffer and 10 µL Cf-ARV-1502) and 12 maximum (20 µL ribosome buffer, 10 µL ribosome solution and 10 µL Cf-ARV-1502) control samples were added. Fluorescence polarization of screening samples was normalized to the fluorescence polarization of these control samples. All screening samples were measured in triplicates and the whole experiment was repeated once on another day.

[5] = system: E. coli 70S ribosome; experiment: Cell-free GFP expression assay (in vitro translation); format: biochemical; conditions: for In Vitro Translation (%): GFP expression remaining relative to control, concentration not given (higher concentration 50 µmol/L)
Excerpt: Possible effects of ARV-1502 and its substituted analogs on the in vitro translation of the green fluorescent protein (GFP) were probed using the NEB PureExpress Delta RF123 Kit (New England Biolabs, Ipswich, MA, USA). The sfGFP DNA template was amplified from pY71sfGFP plasmid by PCR introducing an UAA stop codon. Release factor 1 (RF1) was 50fold diluted in Pure System Buffer (PSB) containing magnesium acetate (1 mol/L), monopotassium phosphate (0.5 mol/L, pH 7.3), potassium glutamate (1 mol/L), NH4Cl (1 mol/L), calcium chloride (0.5 mol/L), spermidine (1 mol/L), putrescine (0.1 mol/L), and DTT (0.1 mol/L). Each reaction used 35 ng of sfGFP template. Peptides were added at a final concentration of 5 µmol/L and 50 µmol/L. The reaction was started by adding Kit solutions A (2 µL) and B (1.5 µL), diluted RF1 (0.5 µL), sfGFP template (0.25 µL or water as negative control), PSB (0.25 µL), and peptide (0.5 µL or water), mixed, transferred into a black 384-well plate (flat bottom, Greiner Bio-One GmbH), and incubated (37 °C, 2 h). The fluorescence was recorded every 10 min (λexc = 485 nm, λem = 535 nm) in a microplate reader (Gemini EM, Molecular Devices LLC, San Jose, CA, USA).

Row | SMILES | MIC (µg/mL), Table 3 [1] | Minimal Inhibitory Concentration, 25% MHB2, wt [1] | Minimal Inhibitory Concentration, 33% TSB, wt [1] | MIC / activity against E. coli ([1]; medium not given) | Minimal Inhibitory Concentration, 25% MHB2, ∆sbmA ∆mdtM ([2]; 25% MHB2, 37 °C, 20 h, at least duplicates on two days, * once on two days, ** duplicate on one day) | Minimal Inhibitory Concentration, 33% TSB, ∆sbmA ∆mdtM ([2]; 33% TSB, 37 °C, 20 h, at least duplicates on two days, * once on two days, ** duplicate on one day) | Minimal Inhibitory Concentration, 25% MHB2, ∆sbmA ([3]; 25% MHB2, 37 °C) | Minimal Inhibitory Concentration, 33% TSB, ∆sbmA ([3]; 33% TSB, 37 °C) | Inhibition of Cf-ARV-1502 binding to the 70S ribosome (in words) ([4]; Figure 3: peptide concentration 1.2 µmol/L) | Ribosome Binding (%) [4] | In Vitro Translation (%) [5] | Effect of the additional mdtM knockout on antibacterial activity ([2]; ∆sbmA ∆mdtM compared with ∆sbmA) | Reduction of GFP expression, 50 µmol/L peptide ([5]; cell-free expression, peptide-to-ribosome ratio of 25, GFP fluorescence, 37 °C)
1 | CC(C)C[C@H](NC(=O)[C@H](Cc1ccc(O)cc1)NC(=O)[C@@H]1CCCN1C(=O)[C@H](CCCNC(=N)N)NC(=O)[C@@H]1CCCN1C(=O)[C@H](CC(=O)O)NC(=O)[C@H](CO)NC(=O)[C@@H]1CCCN1C(=O)[C@H](CCCNC(=N)N)NC(=O)C1(N)CCCCC1)C(=O)N1CCC[C@H]1C(=O)N[C@@H](CCCNC(=N)N)C(=O)N1CCC[C@H]1C(=O)N[C@@H](CCCNC(=N)N)C(=O)N1CCC[C@H]1C(=O)N1CCC[C@H]1C(=O)N[C@@H](CCCNC(=N)N)C(=O)N1CCC[C@H]1C(=O)N[C@H](C(=O)N[C@@H](CCCNC(=N)N)C(N)=O)C(C)C [Peptide 50] (H-[Ac6c]RPSDPRPYLPRPRPPRPVR-NH2) | 128 µg/mL (≈ 52.6 µM) | 128 µg/mL | 64 µg/mL | low activity against E. coli | >128 µg/mL | >128 µg/mL | >128 µg/mL | >128 µg/mL | inhibited Cf-ARV-1502 | 67.9 ± 4.8% | 113.7 ± 9.1% | – | –
2 | CC(C)[C@H](NC(=O)[C@@H]1CCCN1C(=O)[C@H](CCCNC(=N)N)NC(=O)[C@@H]1CCCN1C(=O)[C@@H]1CCCN1C(=O)[C@H](CCCNC(=N)N)NC(=O)[C@@H]1CCCN1C(=O)[C@H](CCCNC(=N)N)NC(=O)[C@@H]1CCCN1C(=O)[C@H](Cc1ccccc1)NC(=O)[C@H](Cc1ccc(O)cc1)NC(=O)[C@@H]1CCCN1C(=O)[C@H](CCCNC(=N)N)NC(=O)[C@@H]1CCCN1C(=O)[C@H](Cc1ccccc1)NC(=O)[C@H](Cc1ccccc1)NC(=O)[C@@H]1CCCN1C(=O)[C@H](CCCNC(=N)N)NC(=O)C1(N)CCCCC1)C(=O)N[C@@H](CCCNC(=N)N)C(N)=O [Peptide 96] (H-[Ac6c]RPFFPRPYFPRPRPPRPVR-NH2; N-terminus and C-terminus assumed) | 16 µg/mL (≈ 6.25 µM) | 16 µg/mL | 32 * µg/mL | – | – | – | – | – | – | 62.9 ± 4.8% | 77.2 ± 1.9% | no effect | ~ 25%
